Data: ChEMBL document CHEMBL1121997, “2-beta-D-Ribofuranosylthiazole-4-carboxamide, a novel potential antitumor agent for lung tumors and metastases” (1982)

What was measured:
Type in all cases: functional
Mus musculus [1] = assay: Effect of compound on life span of mice inoculated intravenously with lewis lung carcinoma at the dose of 100 mg/kg in experiment 1; details: route intravenous
Mus musculus [2] = assay: Effect of compound on life span of mice inoculated intravenously with lewis lung carcinoma at the dose of 800 mg/kg in experiment 2; details: route intravenous
Mus musculus [3] = assay: Number of survivors out of 10 mice after 60 days infected with lewis lung carcinoma at the dose of 50 mg/kg in experiment 2
Mus musculus [4] = assay: Number of survivors out of 10 mice after 60 days infected with lewis lung carcinoma at the dose of 400 mg/kg in experiment 1
Mus musculus [5] = assay: Average body weight in grams on day 5 minus average body weight on day 1 at the dose of 200 mg/kg in experiment 1
Mus musculus [6] = assay: Number of survivors out of 10 mice after 60 days infected with lewis lung carcinoma at the dose of 50 mg/kg in experiment 3
Mus musculus [7] = assay: Effect of compound on life span of mice inoculated intravenously with lewis lung carcinoma at the dose of 400 mg/kg in experiment 3; details: route intravenous
Mus musculus [8] = assay: Average body weight in grams on day 5 minus average body weight on day 1 at the dose of 1.56 mg/kg in experiment 4
Mus musculus [9] = assay: Average body weight in grams on day 5 minus average body weight on day 1 at the dose of 400 mg/kg in experiment 2
Mus musculus [10] = assay: Effect of compound on life span of mice inoculated intravenously with lewis lung carcinoma at the dose of 25 mg/kg in experiment 3; details: route intravenous
Mus musculus [11] = assay: Number of survivors out of 10 mice after 60 days infected with lewis lung carcinoma at the dose of 3.12 mg/kg in experiment 4
Mus musculus [12] = assay: Average body weight in grams on day 5 minus average body weight on day 1 at the dose of 800 mg/kg in experiment 3
Mus musculus [13] = assay: Number of survivors out of 10 mice after 60 days infected with lewis lung carcinoma at the dose of 12.5 mg/kg in experiment 4
Mus musculus [14] = assay: Average body weight in grams on day 5 minus average body weight on day 1 at the dose of 200 mg/kg in experiment 2
Mus musculus [15] = assay: Effect of compound on life span of mice inoculated intravenously with lewis lung carcinoma at the dose of 50 mg/kg in experiment 3; details: route intravenous
Mus musculus [16] = assay: Average body weight in grams on day 5 minus average body weight on day 1 at the dose of 100 mg/kg in experiment 2
Mus musculus [17] = assay: Effect of compound on life span of mice inoculated intravenously with lewis lung carcinoma at the dose of 3.12 mg/kg in experiment 4; details: route intravenous
Mus musculus [18] = assay: Number of survivors out of 10 mice after 60 days infected with lewis lung carcinoma at the dose of 100 mg/kg in experiment 1
Mus musculus [19] = assay: Effect of compound on life span of mice inoculated intravenously with lewis lung carcinoma at the dose of 1.56 mg/kg in experiment 4; details: route intravenous
Mus musculus [20] = assay: Average body weight in grams on day 5 minus average body weight on day 1 at the dose of 12.5 mg/kg in experiment 4
Mus musculus [21] = assay: Number of survivors out of 10 mice after 60 days infected with lewis lung carcinoma at the dose of 800 mg/kg in experiment 1
Mus musculus [22] = assay: Effect of compound on life span of mice inoculated intravenously with lewis lung carcinoma at the dose of 6.25 mg/kg in experiment 4; details: route intravenous
Mus musculus [23] = assay: Effect of compound on life span of mice inoculated intravenously with lewis lung carcinoma at the dose of 800 mg/kg in experiment 1; details: route intravenous
Mus musculus [24] = assay: Average body weight in grams on day 5 minus average body weight on day 1 at the dose of 100 mg/kg in experiment 3
Mus musculus [25] = assay: Average body weight in grams on day 5 minus average body weight on day 1 at the dose of 200 mg/kg in experiment 3
Mus musculus [26] = assay: Effect of compound on life span of mice inoculated intravenously with lewis lung carcinoma at the dose of 25 mg/kg in experiment 4; details: route intravenous
Mus musculus [27] = assay: Number of survivors out of 10 mice after 60 days infected with lewis lung carcinoma at the dose of 25 mg/kg in experiment 4
Mus musculus [28] = assay: Average body weight in grams on day 5 minus average body weight on day 1 at the dose of 800 mg/kg in experiment 1
Mus musculus [29] = assay: Number of survivors out of 10 mice after 60 days infected with lewis lung carcinoma at the dose of 6.25 mg/kg in experiment 4
Mus musculus [30] = assay: Effect of compound on life span of mice inoculated intravenously with lewis lung carcinoma at the dose of 0.78 mg/kg in experiment 4; details: route intravenous
Mus musculus [31] = assay: Effect of compound on life span of mice inoculated intravenously with lewis lung carcinoma at the dose of 800 mg/kg in experiment 3; details: route intravenous
Mus musculus [32] = assay: Effect of compound on life span of mice inoculated intravenously with lewis lung carcinoma at the dose of 200 mg/kg in experiment 3; details: route intravenous
Mus musculus [33] = assay: Effect of compound on life span of mice inoculated intravenously with lewis lung carcinoma at the dose of 400 mg/kg in experiment 1; details: route intravenous
Mus musculus [34] = assay: Number of survivors out of 10 mice after 60 days infected with lewis lung carcinoma at the dose of 800 mg/kg in experiment 2
Mus musculus [35] = assay: Number of survivors out of 10 mice after 60 days infected with lewis lung carcinoma at the dose of 100 mg/kg in experiment 3
Mus musculus [36] = assay: Number of survivors out of 10 mice after 60 days infected with lewis lung carcinoma at the dose of 50 mg/kg in experiment 1
Mus musculus [37] = assay: Average body weight in grams on day 5 minus average body weight on day 1 at the dose of 50 mg/kg in experiment 3
Mus musculus [38] = assay: Average body weight in grams on day 5 minus average body weight on day 1 at the dose of 25 mg/kg in experiment 4
Mus musculus [39] = assay: Number of survivors out of 10 mice after 60 days infected with lewis lung carcinoma at the dose of 25 mg/kg in experiment 1
Mus musculus [40] = assay: Average body weight in grams on day 5 minus average body weight on day 1 at the dose of 100 mg/kg in experiment 1
Mus musculus [41] = assay: Number of survivors out of 10 mice after 60 days infected with lewis lung carcinoma at the dose of 0.78 mg/kg in experiment 4
Mus musculus [42] = assay: Number of survivors out of 10 mice after 60 days infected with lewis lung carcinoma at the dose of 200 mg/kg in experiment 2
Mus musculus [43] = assay: Number of survivors out of 10 mice after 60 days infected with lewis lung carcinoma at the dose of 25 mg/kg in experiment 3
Mus musculus [44] = assay: Effect of compound on life span of mice inoculated intravenously with lewis lung carcinoma at the dose of 50 mg/kg in experiment 2; details: route intravenous
Mus musculus [45] = assay: Number of survivors out of 10 mice after 60 days infected with lewis lung carcinoma at the dose of 400 mg/kg in experiment 2
Mus musculus [46] = assay: Number of survivors out of 10 mice after 60 days infected with lewis lung carcinoma at the dose of 200 mg/kg in experiment 3
Mus musculus [47] = assay: Average body weight in grams on day 5 minus average body weight on day 1 at the dose of 3.12 mg/kg in experiment 4
Mus musculus [48] = assay: Effect of compound on life span of mice inoculated intravenously with lewis lung carcinoma at the dose of 12.5 mg/kg in experiment 4; details: route intravenous
Mus musculus [49] = assay: Average body weight in grams on day 5 minus average body weight on day 1 at the dose of 25 mg/kg in experiment 2
Mus musculus [50] = assay: Average body weight in grams on day 5 minus average body weight on day 1 at the dose of 50 mg/kg in experiment 1
Mus musculus [51] = assay: Average body weight in grams on day 5 minus average body weight on day 1 at the dose of 6.25 mg/kg in experiment 4
Mus musculus [52] = assay: Number of survivors out of 10 mice after 60 days infected with lewis lung carcinoma at the dose of 1.56 mg/kg in experiment 4
Mus musculus [53] = assay: Number of survivors out of 10 mice after 60 days infected with lewis lung carcinoma at the dose of 200 mg/kg in experiment 1
Mus musculus [54] = assay: Effect of compound on life span of mice inoculated intravenously with lewis lung carcinoma at the dose of 100 mg/kg in experiment 2; details: route intravenous
Mus musculus [55] = assay: Number of survivors out of 10 mice after 60 days infected with lewis lung carcinoma at the dose of 800 mg/kg in experiment 3
Mus musculus [56] = assay: Average body weight in grams on day 5 minus average body weight on day 1 at the dose of 0.78 mg/kg in experiment 4
Mus musculus [57] = assay: Average body weight in grams on day 5 minus average body weight on day 1 at the dose of 400 mg/kg in experiment 3
Mus musculus [58] = assay: Average body weight in grams on day 5 minus average body weight on day 1 at the dose of 25 mg/kg in experiment 1
Mus musculus [59] = assay: Number of survivors out of 10 mice after 60 days infected with lewis lung carcinoma at the dose of 100 mg/kg in experiment 2
Mus musculus [60] = assay: Number of survivors out of 10 mice after 60 days infected with lewis lung carcinoma at the dose of 25 mg/kg in experiment 2
Mus musculus [61] = assay: Average body weight in grams on day 5 minus average body weight on day 1 at the dose of 400 mg/kg in experiment 1
Mus musculus [62] = assay: Average body weight in grams on day 5 minus average body weight on day 1 at the dose of 25 mg/kg in experiment 3
Mus musculus [63] = assay: Average body weight in grams on day 5 minus average body weight on day 1 at the dose of 800 mg/kg in experiment 2
Mus musculus [64] = assay: Number of survivors out of 10 mice after 60 days infected with lewis lung carcinoma at the dose of 400 mg/kg in experiment 3
Mus musculus [65] = assay: Average body weight in grams on day 5 minus average body weight on day 1 at the dose of 50 mg/kg in experiment 2

`NC(=O)c1csc([C@@H]2O[C@H](CO)[C@@H](O)[C@H]2O)n1` [TIAZOFURIN] gave a Median life span (Mus musculus [1]) of 17 days, a Median life span (Mus musculus [2]) of 8.5 days and a Survivors (Mus musculus [3]) of 9. The Survivors (Mus musculus [4]) was 7, the Weight change (Mus musculus [5]) was 1.3 g and the Survivors (Mus musculus [6]) was 9. For the same compound, the Median life span (Mus musculus [7]) was 20 days, the Weight change (Mus musculus [8]) was 1.7 g and the Weight change (Mus musculus [9]) was 0.4 g. The Median life span (Mus musculus [10]) was 47 days, the Survivors (Mus musculus [11]) was 0 and the Weight change (Mus musculus [12]) was -0.8 g. The Survivors (Mus musculus [13]) was 7, the Weight change (Mus musculus [14]) was 0.7 g and the Median life span (Mus musculus [15]) was 55 days. The Weight change (Mus musculus [16]) was 1.3 g, the Median life span (Mus musculus [17]) was 22.8 days and the Survivors (Mus musculus [18]) was 9. The Median life span (Mus musculus [19]) was 23 days, the Weight change (Mus musculus [20]) was 1.9 g and the Survivors (Mus musculus [21]) was 6. It also gave a Median life span (Mus musculus [22]) of 25.3 days, a Median life span (Mus musculus [23]) of 11.3 days and a Weight change (Mus musculus [24]) of 0.9 g. The Weight change (Mus musculus [25]) was 0.7 g, the Median life span (Mus musculus [26]) was 7 days and the Survivors (Mus musculus [27]) was 9. It also gave a Weight change (Mus musculus [28]) of 1.3 g, a Survivors (Mus musculus [29]) of 0 and a Median life span (Mus musculus [30]) of 20 days. For the same compound, the Median life span (Mus musculus [31]) was 11.3 days, the Median life span (Mus musculus [32]) was 16 days and the Median life span (Mus musculus [33]) was 9.5 days. For the same compound, the Survivors (Mus musculus [34]) was 1, the Survivors (Mus musculus [35]) was 10 and the Survivors (Mus musculus [36]) was 10. For the same compound, the Weight change (Mus musculus [37]) was 1.2 g, the Weight change (Mus musculus [38]) was 1.5 g and the Survivors (Mus musculus [39]) was 10. It also gave a Weight change (Mus musculus [40]) of 1.3 g, a Survivors (Mus musculus [41]) of 0 and a Survivors (Mus musculus [42]) of 10. For the same compound, the Survivors (Mus musculus [43]) was 7, the Median life span (Mus musculus [44]) was 47 days and the Survivors (Mus musculus [45]) was 10. The Survivors (Mus musculus [46]) was 8, the Weight change (Mus musculus [47]) was 1.8 g and the Median life span (Mus musculus [48]) was 39.5 days. For the same compound, the Weight change (Mus musculus [49]) was 1 g, the Weight change (Mus musculus [50]) was 2.2 g and the Weight change (Mus musculus [51]) was 2.3 g. For the same compound, the Survivors (Mus musculus [52]) was 0, the Survivors (Mus musculus [53]) was 10 and the Median life span (Mus musculus [54]) was 46 days. For the same compound, the Survivors (Mus musculus [55]) was 0, the Weight change (Mus musculus [56]) was 2 g and the Weight change (Mus musculus [57]) was 0.5 g. For the same compound, the Weight change (Mus musculus [58]) was 1.2 g, the Survivors (Mus musculus [59]) was 9 and the Survivors (Mus musculus [60]) was 10. The Weight change (Mus musculus [61]) was 1.2 g, the Weight change (Mus musculus [62]) was 1.1 g and the Weight change (Mus musculus [63]) was -2.1 g. The Survivors (Mus musculus [64]) was 6 and the Weight change (Mus musculus [65]) was 1.6 g.
